The values below come from patent US20260000658A1, “METHODS FOR THE TREATMENT OF PROLIFERATIVE GLOMERULONEPHRITIS” (INSTITUT NATIONAL DE LA SANTÉ ET DE LA RECHERCHE MÉDICALE, priority 2022, published 2026).

The subject of one assay is NZBWF1/J mice. As to the kind of experiment: Uninephrectomized NZBWF1/J mice (lupus nephritis model), vehicle or alpelisib for 4 weeks. Format: in vivo, mouse. The source says:
A. Urinary albumin to creatinine ratio B. Blood urea nitrogen level, C. kidney to body weight ratio of NZBWF1/J mice at the time of sacrifice (4 weeks following either sham operation or uninephrectomy followed by the treatment either with vehicle or alpelisib) (n=5-15 mice per group). D. Representative P-S6RP/Nephrin coimmunofluorescence staining of kidneys from 4 weeks following either sham operation or uninephrectomy followed by the treatment either with vehicle or alpelisib) (n=4-6 mice per group). Scale bar […]. E. P-S6RP mean intensity quantification (n=4-6 mice per group). F. Col3a, G. Col1a, and H. Tnfα quantification of qRT-PCR analysis in the kidney cortex of kidneys at the time of sacrifice (4 weeks following either sham operation or uninephrectomy followed by the treatment either with vehicle or alpelisib) (n=5-15 mice per group). I. Kaplan-Meier survival curves of MRL-lpr mice treated either with vehicle or alpelisib (n=13-14 mice per group). J. Urinary albumin to creatinine ratio of MRL-lpr mice treated either with vehicle or alpelisib from 8 weeks old till death (n=13-14 mice per group). K. Vehicle treated mice, and L. alpelisib treated mice of the trajectory of urinary albumin to creatinine ratio of MRL-lpr mice (n=13-14 mice per group).
(§1) For the uninephrectomy experiments, the right kidneys were removed under anesthesia. For the medical treatment of mice, 50 mg kg −1 alpelisib (MedChem Tronica) in 1% carboxymethylcellulose (Sigma Aldrich)+0.5% Tween (Sigma Aldrich) or vehicle (1% carboxymethylcellulose+0.5% Tween) was administered by oral gavage daily for the indicated periods of time. Blood and urines were obtained at the indicated times. At euthanasia, blood, urines, kidneys were harvested. In some experiments, spleens, hearts, and bone marrow (BM) in femurs and tibias were harvested as well. Tissues were fixed in 4% paraformaldehyde and paraffin embedded for immunohistochemical analysis, snap-frozen in Optimal Cutting Temperature (OCT), or stored at −80° C. for mRNA or protein analysis.
(§2) Mouse blood counts were analyzed using a hematology analyzer (ProCyte Dx; IDEXX Laboratories). Mouse serum creatinine, blood urea nitrogen, urinary albumin, and urinary creatinine were evaluated using an AU5800 (Beckman Coulter) autoanalyzer. Serum anti-dsDNA measurement was performed according to the manufacturer's instruction using mouse anti-dsDNA ELISA kit (LBIS). The absorbance was measured using Ininite M Nano (TECAN).
4-μm kidney sections were stained with periodic acid-Schiff (PAS), Masson's Trichrome (MT), Periodic acid metenamine silver (PAM) or Hematoxylin and Eosin (HE) staining for histological analysis. The degree of glomerular lesions was evaluated using the following scoring system: 0=no lesion, 1=affecting up to 25% of the glomerulus, 2=affecting 25-50% of the glomerulus, 3=affecting 50-75% of the glomerulus, and 4=affecting 75-100%. At least 50 glomeruli per sample were measured for each analysis. An indirect immunoperoxidase method was used for immunohistochemistry. Briefly, after deparaffinization, antigen retrieval was performed with citrate buffer (pH6) or Tris-EDTA buffer (pH9 or pH6) using microwave or high temperature (95° C.). Endogenous peroxidase activity was quenched using 3% hydrogen peroxide; nonspecific protein binding was blocked using 2.5% normal horse serum (Vector Laboratories), and endogenous biotin activity was quenched using the Avidin/Biotin Blocking Kit (Vector Laboratories). When using mouse primary antibodies on mouse tissue, Klear mouse blocking reagent (Diagomics) was used to block endogenous mouse immunoglobulins. After blocking, the tissue sections were incubated with the primary antibodies overnight at 4° C. […]

The test system of a further assay is MRL-lpr mice. As to the kind of experiment: MRL-lpr mice, 12 weeks old, treated for 4 weeks. It counts as in vivo, mouse. The procedure: as §1, §2
4-μm kidney sections were stained with periodic acid-Schiff (PAS), Masson's Trichrome (MT), Periodic acid metenamine silver (PAM) or Hematoxylin and Eosin (HE) staining for histological analysis. The degree of glomerular lesions was evaluated using the following scoring system: 0=no lesion, 1=affecting up to 25% of the glomerulus, 2=affecting 25-50% of the glomerulus, 3=affecting 50-75% of the glomerulus, and 4=affecting 75-100%. At least 50 glomeruli per sample were measured for each analysis. An indirect immunoperoxidase method was used for immunohistochemistry. Briefly, after deparaffinization, antigen retrieval was performed with citrate buffer (pH6) or Tris-EDTA buffer (pH9 or pH6) using microwave or high temperature (95° C.). Endogenous peroxidase activity was quenched using 3% hydrogen peroxide; nonspecific protein binding was blocked using 2.5% normal horse serum (Vector Laboratories), and endogenous biotin activity was quenched using the Avidin/Biotin Blocking Kit (Vector Laboratories). When using mouse primary antibodies on mouse tissue, Klear mouse blocking reagent (Diagomics) was used to block endogenous mouse immunoglobulins. After blocking, the tissue sections were incubated with the primary antibodies overnight at 4° C. The following primary antibodies were used: rabbit anti-Ki67 antibody (SP6; Thermo Fisher Scientific), rabbit anti-P-S6RP antibody (D68F8; Cell Signaling Technology), mouse anti-P-AKT (Ser473) antibody (587F11; Cell Signaling Technology), rabbit anti-P-AKT (Thr308) antibody (C31E5E; Cell Signaling Technology), mouse anti-S6RP antibody (54E2; Cell Signaling Technology), chicken anti-GFP antibody (Abcam), guinea pig anti-Nephrin antibody (GP-N2; Progen), rabbit anti-Podocin antibody (P0372; Sigma Aldrich), mouse anti-WTI antibody (6F-H2; DAKO). The corresponding secondary antibodies including anti-mouse IgG, anti-rabbit IgG, anti-guinea pig IgG, biotinylated anti-rabbit IgG (Vector Laboratories), and biotinylated anti-mouse IgG (Vector Laboratories) were applied. For Avidin/Biotin detection, an R.T.U. Vectastain Kit (Vector Laboratories) or streptavidin (Thermo Fisher Scientific) was used. The immunoreactive antigens sites were detected with hydrogen peroxide and diaminobenzidine. For frozen immunofluorescent staining, frozen tissue sections (4 μm) were briefly air dried and fixed in 50% methanol/50% acetone. The sections were then blocked with 2.5% normal horse serum and incubated with primary antibodies: guinea pig anti-Nephrin antibody (GP-N2; Progen) overnight at 4° C. The sections were then incubated at room temperature for 40 min with secondary antibodies: fluorescein isothiocyanate-conjugated (FITC) anti-mouse IgG (Sigma Aldrich), FITC anti-mouse IgM (BD Biosciences), or FITC anti-mouse C3 antibody (abcam). […]

The mark [1] stands for this setting: 4 weeks treatment, at sacrifice.

Molecules are shown by their SMILES.

As to `Cc1nc(NC(=O)N2CCC[C@H]2C(N)=O)sc1-c1ccnc(C(C)(C)C(F)(F)F)c1` [alpelisib, Alpelisib], in the assay with NZBWF1/J mice (4 weeks treatment), the anemia entry is “partial correction of anemia”; the “glomerular AKT/mTOR pathway activation (P-S6RP)” value is on record as “blunted”; the “glomerular IgG, IgM and C3 deposits” value is on record as “significantly reduced”; the “level of dsDNA” value is “tendency to decrease”. Further, in the assay with NZBWF1/J mice (4 weeks treatment), the platelet count result is “significant increase in platelet count” and the podocyte differentiation markers result was “significantly improved”. For the same molecule, in the assay on NZBWF1/J mice (setting [1]), the “blood urea nitrogen levels” value was “lower blood urea nitrogen levels” and the “kidney to body weight ratio” value is “significantly reduced”. In the assay on NZBWF1/J mice (4 weeks treatment, vs vehicle), the “glomeruli, histological level” value is given as “preserved glomeruli”. Moreover, in the assay on NZBWF1/J mice (Lupus Nephritis models (NZBWF1/J and MRL-lpr)), the “kidney lesions (title of FIG. 4)” value was “improves kidney lesions”. For the same molecule, the spleen size entry in the assay on NZBWF1/J mice (both sham and uninephrectomized mice) was “significantly reduced”. The “albuminuria (urinary albumin to creatinine ratio)” value in the assay with NZBWF1/J mice (females, uninephrectomy at 24 weeks, 4 weeks treatment, at sacrifice) was “significantly less albuminuria”. In addition, in the assay with NZBWF1/J mice (kidney cortex, qRT-PCR), the “Col1a and Col3a mRNA expression” value is recorded as “reduced”; the “TNFa mRNA expression” value is “reduced”. For the same molecule, in the assay on NZBWF1/J mice (sacrifice vs kidney removed at uninephrectomy), the “progression of glomerular lesions” value is recorded as “remained stable”. Also, the proteinuria result in the assay on MRL-lpr mice (12 weeks old females, 4 consecutive weeks) is listed as “proteinuria reduction”. Moreover, in the assay on MRL-lpr mice (12 weeks old, 4 weeks), the “Cola1 and Cola3 mRNA expression” value was “improved”; the dsDNA antibodies result is reported as “significantly reduced”; the “glomerular AKT/mTOR pathway” value is “inhibited”; the glomerular lesion score result is listed as “improved”. Also, in the assay with MRL-lpr mice (vs vehicle), the “expression of podocyte differentiation markers” value is “increased”.
